EC50 data for 24 compounds are collected here from US9902703B2, “Somatostatin modulators and uses thereof” (Crinetics Pharmaceuticals, Inc., priority 2015, dated 2018).

Structures are written as SMILES.

The experiment deals with T1, human somatostatin receptor subtype 2 (Homo sapiens, UniProt P30874).
T1 construct: expressed in transfected cells; host or cells: CHO (Chinese hamster ovary) cells, G-418 selected
T1 sequence (P30874 whole entry): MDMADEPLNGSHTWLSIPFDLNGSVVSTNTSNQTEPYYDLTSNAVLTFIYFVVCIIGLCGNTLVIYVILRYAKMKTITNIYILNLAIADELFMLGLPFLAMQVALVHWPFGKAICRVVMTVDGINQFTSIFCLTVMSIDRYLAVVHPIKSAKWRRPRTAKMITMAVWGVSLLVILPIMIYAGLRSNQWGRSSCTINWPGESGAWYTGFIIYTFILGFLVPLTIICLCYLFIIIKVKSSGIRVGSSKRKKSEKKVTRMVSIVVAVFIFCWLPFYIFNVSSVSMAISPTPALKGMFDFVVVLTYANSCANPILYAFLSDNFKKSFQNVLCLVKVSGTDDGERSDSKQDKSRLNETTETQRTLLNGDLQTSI
Briefly: cAMP assay (functional assay for SSTR2 agonists). Format: cell-based. To be noted: CHO cells expressing human SSTR2; intracellular cAMP with forskolin, HTRF; read-out: SSTR2a EC50. The source says: Functional Assay for SSTR2 Agonists
General overview: All five SSTR subtypes are Gi coupled G-protein coupled receptors (GPCRs) that lead to decreases in intracellular cyclic AMP (cAMP) when activated by an agonist. Therefore, measurement of intracellular cAMP levels can be used to assess whether compounds of the invention are agonists of SSTR subtypes (John Kelly, Troy Stevens, W. Joseph Thompson, and Roland Seifert, Current Protocols in Pharmacology, 2005, 2.2.1-2.2). One example of an intracellular cAMP assay is described below.
One day prior to the assay, 40,000 Chinese hamster ovary (CHO) cells expressing the human somatostatin receptor subtype 2 are plated in each well of a 96-well tissue culture plate in DM-MEM growth media (Gibco) with the following additives: 10% fetal bovine serum (Gibco), 100 U/mL penicillin (Gibco), 100 ug/mL streptomycin (Gibco), 10 mM HEPES (Gibco), 1.2 mM sodium hydroxide, 0.5 mg/mL G-418 (Gibco)). The cells are cultured overnight at 37° C., 5% CO2 and 95% humidity. On the day of the assay, the media is aspirated and the cells are washed with 1× Dulbecco's phosphate buffered saline (Gibco). Next, 5 μL of assay buffer (1× Earle's Balanced Salt Solution (Gibco), 5 mM MgCl2, 10 mM HEPES, 0.1% bovine serum albumin, 0.2 mM 3-Isobutyl-1-methylxanthine (IBMX, Biomol Research Labs)) and forskolin is added. Various dilutions of the compounds of the invention are prepared in assay buffer and 5 μL of the dilutions are added to the cultured cells and incubated for 15 minutes at 37° C. […] 10 μL of lysis buffer (HRTF cAMP kit, Cisbio) containing cAMP detection and visualization antibodies are added and the assay is allowed incubate for 1-24 hours at room temperature. The intracellular cAMP concentrations are then measured using a commercially available detection kit (for example, the cAMP HTRF kit, Cisbio). The measured intracellular cAMP concentrations are plotted vs. the concentration of the compounds of the invention and the EC50 of the compounds are calculated using standard methods.
For orientation: Cyclic AMP is a second messenger, typically raised through Gs and lowered through Gi signalling.
As for `Cc1cc(Cl)cc(N2C=Nc3ccc(-c4cccc(O)c4)cc3C2C(=O)N(C)C[C@@H]2CCCN2)c1` (stereo partly drawn) [Compound 1-45, 3-(3-chloro-5-methylphenyl)-6-(3-hydroxyphenyl)-N-methyl-N-[(2S)-pyrrolidin-2-ylmethyl]-3,4-dihydroquinazoline-4-carboxamide], the EC50 (as a rule, the concentration needed to bring the measured effect to its halfway point) is less than 100 nM.

Consider `CC1=Nc2ccc(-c3cc(O)ccc3Cl)cc2C(C(=O)N(C)C[C@@H]2CCCN2)N1c1cc(C)cc(Cl)c1` (stereo partly drawn) [Compound 1-27, 6-(2-chloro-5-hydroxyphenyl)-3-(3-chloro-5-methylphenyl)-N,2-dimethyl-N-[(2S)-pyrrolidin-2-ylmethyl]-3,4-dihydroquinazoline-4-carboxamide], for which the EC50 is less than 100 nM. On to `Cc1cc(Cl)cc(N2C=Nc3cc(C)c(-c4cc(F)cc(C(N)=O)c4)cc3C2C(=O)N(C)C[C@@H]2CCCN2)c1` (single isomer, unassigned) [Compound 3-1], for which the EC50 was less than 100 nM. Regarding `Cc1cc(Cl)cc(N2C=Nc3cc(C)c(-c4cc(F)cc(C(N)=O)c4)cc3C2C(=O)N(C)C[C@@H]2CCCN2)c1` (stereo partly drawn) [Compound 2-9, 6-(3-carbamoyl-5-fluorophenyl)-3-(3-chloro-5-methylphenyl)-N,7-dimethyl-N-[(2S)-pyrrolidin-2-ylmethyl]-3,4-dihydroquinazoline-4-carboxamide], the EC50 is less than 100 nM. As for `Cc1cc(Cl)cc(N2C=Nc3cc(C)c(-c4cccc(CC(=O)O)c4)cc3C2C(=O)N(C)C[C@@H]2CCCN2)c1` (stereo partly drawn) [Compound 1-53, 2-{3-[3-(3-chloro-5-methylphenyl)-7-methyl-4-{methyl[(2S)-pyrrolidin-2-ylmethyl]carbamoyl}-3,4-dihydroquinazolin-6-yl]phenyl}acetic acid], the EC50 was less than 100 nM. The result for `CC[C@H](N)CN(C)C(=O)C1c2cc(-c3c(F)ccc(O)c3F)c(C)cc2N=CN1c1cc(C)cc(C)c1` (stereo partly drawn) [Compound 1-15, N-[(2S)-2-aminobutyl]-6-(2,6-difluoro-3-hydroxyphenyl)-3-(3,5-dimethylphenyl)-N,7-dimethyl-3,4-dihydroquinazoline-4-carboxamide] reads less than 100 nM; that for `Cc1cc(Cl)cc(N2C=Nc3cc(C)c(-c4cccc(-c5nnn[nH]5)c4)cc3C2C(=O)N(C)C[C@@H]2CCCN2)c1` (stereo partly drawn) [Compound 1-47, 3-(3-chloro-5-methylphenyl)-N,7-dimethyl-N-[(2S)-pyrrolidin-2-ylmethyl]-6-[3-(1H-1,2,3,4-tetrazol-5-yl)phenyl]-3,4-dihydroquinazoline-4-carboxamide], less than 100 nM; that for `Cc1cc(Cl)cc(N2C=Nc3cc(C)c(-c4cccc(C(N)=O)c4)cc3C2C(=O)N(C)C[C@@H]2CCCCN2)c1` (stereo partly drawn) [Compound 1-24, 6-(3-carbamoylphenyl)-3-(3-chloro-5-methylphenyl)-N,7-dimethyl-N-[(2S)-piperidin-2-ylmethyl]-3,4-dihydroquinazoline-4-carboxamide], less than 100 nM. As for `Cc1cc(Cl)cc(N2C=Nc3cc(Cl)c(-c4cccc(O)c4)cc3C2C(=O)N(C)C[C@@H]2CCCN2)c1` (stereo partly drawn) [Compound 1-72, 7-chloro-3-(3-chloro-5-methylphenyl)-6-(3-hydroxyphenyl)-N-methyl-N-((S)-pyrrolidin-2-ylmethyl)-3,4-dihydroquinazoline-4-carboxamide], the EC50 was less than 100 nM. On to `CC[C@H](N)CN(C)C(=O)C1c2cc(-c3cc(O)ccc3F)c(C)cc2N=CN1c1cc(C)cc(C)c1` (stereo partly drawn) [Compound 1-10, N-[(2S)-2-aminobutyl]-3-(3,5-dimethylphenyl)-6-(2-fluoro-5-hydroxyphenyl)-N,7-dimethyl-3,4-dihydroquinazoline-4-carboxamide], for which the EC50 is less than 100 nM.

Turning to `Cc1cc(C)cc(N2C=Nc3ccc(-c4cccc(O)c4)cc3C2C(=O)N(C)CCN)c1` (stereo not drawn) [Compound 1-2, N-(2-aminoethyl)-3-(3,5-dimethylphenyl)-6-(3-hydroxyphenyl)-N-methyl-3,4-dihydroquinazoline-4-carboxamide], the EC50 was in the range of 100 to 1000 nM. With `COc1cc(C)cc(-c2cc3c(cc2C)N=CN(c2cc(C)cc(Cl)c2)C3C(=O)N(C)C[C@@H]2CCCN2)c1` (stereo partly drawn) [Compound 2-15, 3-(3-chloro-5-methylphenyl)-6-(3-methoxy-5-methylphenyl)-N,7-dimethyl-N-[(2S)-pyrrolidin-2-ylmethyl]-3,4-dihydroquinazoline-4-carboxamide], the half-maximal effective concentration (EC50) was less than 100 nM. Consider `Cc1cc(F)cc(N2C=Nc3cc(C)c(-c4cc(O)cc(C#N)c4)cc3C2C(=O)N(C)C[C@@H]2CCCN2)c1` (stereo partly drawn) [Compound 1-54, 6-(3-cyano-5-hydroxyphenyl)-3-(3-fluoro-5-methylphenyl)-N,7-dimethyl-N-[(2S)-pyrrolidin-2-ylmethyl]-3,4-dihydroquinazoline-4-carboxamide], for which the EC50 was less than 100 nM.

As for `Cc1cc(Cl)cc(N2C=Nc3cc(C)c(-c4cccc(C#N)c4)cc3C2C(=O)N(C)C[C@@H]2CCCN2)c1` (stereo partly drawn) [Compound 1-33, 3-(3-chloro-5-methylphenyl)-6-(3-cyanophenyl)-N,7-dimethyl-N-[(2S)-pyrrolidin-2-ylmethyl]-3,4-dihydroquinazoline-4-carboxamide], the EC50 was less than 100 nM. As to `Cc1cc(Cl)cc(N2C=Nc3cc(C)c(-c4cc(F)ccc4Cl)cc3C2C(=O)N(C)C[C@@H]2CCCN2)c1` (stereo partly drawn) [Compound 1-35, 6-(2-chloro-5-fluorophenyl)-3-(3-chloro-5-methylphenyl)-N,7-dimethyl-N-[(2S)-pyrrolidin-2-ylmethyl]-3,4-dihydroquinazoline-4-carboxamide], the EC50 was less than 100 nM. Turning to `Cc1cc(C)cc(N2C=Nc3cc(Cl)c(-c4cccc(O)c4)cc3C2C(=O)NCCN)c1` (stereo not drawn) [Compound 1-3, N-(2-aminoethyl)-7-chloro-3-(3,5-dimethylphenyl)-6-(3-hydroxyphenyl)-3,4-dihydroquinazoline-4-carboxamide], the EC50 fell in the range of 1000 to 10000 nM.

`CC[C@H](N)CN(C)C(=O)C1c2cc(-c3cc(O)c(F)cc3F)c(C)cc2N=CN1c1cc(C)cc(C)c1` (stereo partly drawn) [Compound 1-14, N-[(2S)-2-aminobutyl]-6-(2,4-difluoro-5-hydroxyphenyl)-3-(3,5-dimethylphenyl)-N,7-dimethyl-3,4-dihydroquinazoline-4-carboxamide]: the EC50 lay within 100 to 1000 nM. `COc1ccc(C)c(-c2cc3c(cc2C)N=CN(c2cc(C)cc(Cl)c2)C3C(=O)N(C)C[C@@H]2CCCN2)c1` (stereo partly drawn) [Compound 2-4, 3-(3-chloro-5-methylphenyl)-6-(5-methoxy-2-methylphenyl)-N,7-dimethyl-N-[(2S)-pyrrolidin-2-ylmethyl]-3,4-dihydroquinazoline-4-carboxamide]: the EC50 is less than 100 nM. As to `Cc1cc(Cl)cc(N2C=Nc3cc(C)c(-c4cc(O)cc(C#N)c4)cc3C2C(=O)N(C)C[C@@H]2CCCN2)c1` (stereo partly drawn) [Compound 1-48, 3-(3-chloro-5-methylphenyl)-6-(3-cyano-5-hydroxyphenyl)-N,7-dimethyl-N-[(2S)-pyrrolidin-2-ylmethyl]-3,4-dihydroquinazoline-4-carboxamide], the half-maximal effective concentration (EC50) is less than 100 nM.

As to `Cc1cc(Cl)cc(N2C=Nc3cc(C)c(-c4cccc(NS(C)(=O)=O)c4)cc3C2C(=O)N(C)C[C@@H]2CCCN2)c1` (stereo partly drawn) [Compound 2-6, 3-(3-chloro-5-methylphenyl)-6-(3-methanesulfonamidophenyl)-N,7-dimethyl-N-[(2S)-pyrrolidin-2-ylmethyl]-3,4-dihydroquinazoline-4-carboxamide], the EC50 lay in the range of 100 to 1000 nM. Regarding `Cc1cc(Cl)cc(N2C=Nc3cc(C)c(-c4ccc(O)c(F)c4)cc3C2C(=O)N(C)C[C@@H]2CCCN2)c1` (stereo partly drawn) [Compound 2-32, 3-(3-chloro-5-methylphenyl)-6-(3-fluoro-4-hydroxyphenyl)-N,7-dimethyl-N-[(2S)-pyrrolidin-2-ylmethyl]-3,4-dihydroquinazoline-4-carboxamide], the EC50 was less than 100 nM. For the compound `COc1cccc(-c2cc3c(cc2C)N=CN(c2cc(C)cc(Cl)c2)C3C(=O)N(C)C[C@@H]2CCCN2)c1C#N` (stereo partly drawn) [Compound 2-30, 3-(3-chloro-5-methylphenyl)-6-(2-cyano-3-methoxyphenyl)-N,7-dimethyl-N-[(2S)-pyrrolidin-2-ylmethyl]-3,4-dihydroquinazoline-4-carboxamide], the EC50 was less than 100 nM.

Take `COc1cc(F)cc(N2C=Nc3cc(C)c(-c4cc(O)ccc4F)cc3C2C(=O)N(C)C[C@@H]2CCCN2C)c1` (stereo partly drawn) [Compound 1-52, 6-(2-fluoro-5-hydroxyphenyl)-3-(3-fluoro-5-methoxyphenyl)-N,7-dimethyl-N-{[(2S)-1-methylpyrrolidin-2-yl]methyl}-3,4-dihydroquinazoline-4-carboxamide]: the 50% effective concentration (EC50) was less than 100 nM. The result for `Cc1cc(Cl)cc(N2C=Nc3cc(C)c(-c4ccccc4)cc3C2C(=O)N(C)C[C@@H]2CCCN2)c1` (stereo partly drawn) [Compound 1-32, 3-(3-chloro-5-methylphenyl)-N,7-dimethyl-6-phenyl-N-[(2S)-pyrrolidin-2-ylmethyl]-3,4-dihydroquinazoline-4-carboxamide] reads less than 100 nM.
